Reference: patent US9945863B2, “Coiled coil helix cristae morphology 1 (CHCM1) tumor marker and cancer therapeutic target” (The Research Foundation of State University of New York, priority 2012, dated 2018)

Experiments:
[1] = system: CHCM1/CHCHD6 protein levels; experiment: Western blot of CHCM1/CHCHD6 protein levels after drug treatment; type: cell-based, human
Method: (§1) Western blotting and immunoprecipitations were done by standard procedures as previously described (25, 26). S-tag pull down experiments were performed using human cancer cells as well as bacterial lysates. Cell pellets were prepared and lysed in lysis buffer (50 mM Tris-HCl, pH 7.4, 120 mM NaCl, 0.1% NP-40, 10 mM NaF, 5 mM EDTA, 2 mM Na3VO4, 2 mM MgCl2, 10 mM KCl, 25 mM glycerophosphate, protease inhibitor cocktail, okadic acid and 1 mM PMSF) and S-tag pull down was performed by using S-protein agarose beads (Novagen, EMD Chemicals Group, Darmstadt, Germany) according to manufacturer's protocol. For S-tag pull down using bacterial lysates, wild type and deletion variants of S-tagged CHCM1/CHCHD6 were expressed in E. coli BL21 (DE3) and induced by 1 mM IPTG (isopropyl-1-thio-β-D-galactopyranoside) at 30° C. for 6 hr. Bacteria were lysed in a buffer containing 28 mM Tris, 135 mM NaCl, 1 mM dithiothreitol (DTT), 1% Triton-X 100 (w/v), protease inhibitor cocktail and 400 μg/ml […] for 30 min at room temperature, followed by 26,000×g centrifugation for 30 min (Sorvall RC5C Plus) and S-tag pull down was done according to manufacturer's protocol. GST-tagged Mitofilin was expressed in bacteria and gel-purified as previously described (27).

[2] = system: MDA231 and SK-Mel-103 cells; experiment: MTT assay, chemosensitivity of CHCM1/CHCHD6 knockdown cells; type: cell-based, human; settings: Adria 3 μM for MDA231, 1 μM for SK-Mel-103, 24 hr; knockdown vs scramble (FIG. 6A)
Source text: (§2) Endogenous CHCM1/CHCHD6 and Mitofilin were knocked-down by lentiviral shRNA-mediated approach (28). The pLKO.1 lentiviral vectors containing the scrambled or CHCM1/CHCHD6-specific shRNAs or Mitofilin-specific shRNAs were generated by The RNA interference Consortium and purchased from Open Biosystems (Huntsville, Ala.). Lentiviruses were produced and titered according to the supplier's protocols. In all experiments, the multiplicity of infection (M.O.I.) was 1.0. Five shRNAs to target five different regions of CHCM1/CHCHD6 were used. Artificial DNA sequences coding for shRNAs are as follows. The first part of the sequence is in sense orientation then loop (underlined) followed by antisense sequence:
(§3) MTT powder (MTT, Methylthiazolyldiphenyl-tetrazolium bromide, available from Sigma-Aldrich, St. Louis, Mo., Cat. No. M2128) was dissolved in DMEM without fetal bovine serum and phenol red to a final concentration of 1 mg/ml and then added to cells and incubated for ˜1-4 hrs depending on cell confluency. Medium was then removed and equal volume of isopropanol with 0.04N HCl was added to dissolve the precipitate. Finally, absorbance was read at 570 nm wavelength subtracting background reading at 650 nm wavelength with a Bio-Rad Smart-Spec 3100 instrument.

[3] = system: CHCM1/CHCHD6 mRNA; experiment: Northern blot of CHCM1/CHCHD6 mRNA after genotoxic drug treatment; type: cell-based, human
Method: (§4) Northern blot analyses were done according to standard procedure (23, 24). Briefly, total RNA was extracted by Trizol reagent (Invitrogen, Carlsbad, Calif.) and ˜15 μg of total RNA were size-separated on 1.2% agarose gel and transferred to nylon membrane (Whatman, GE Health care, Piscataway, N.J.). Human CHCM1/CHCHD6 cDNA probe was labeled with ^32P and hybridization was performed in QuikHyb solution (Stratagene, La Jolla, Calif.) at 65° C.

[4] = system: RKO cells stably expressing exogenous CHCM1/CHCHD6; experiment: MTT assay, chemosensitivity of cells stably overexpressing CHCM1/CHCHD6; type: cell-based, human; settings: etoposide 30 μM for 48 hr; clones C3 and C4 vs vector (FIG. 6B)
Source text: For stable transfections, expression vector pcDNA3.1 carrying HA/S-tagged CHCM1/CHCHD6 was used. The same vector without CHCM1/CHCHD6 insert was used for control transfection. RKO human colon cancer cells were transfected with these vectors using Lipofectamine 2000 (Invitrogen, Carlsbad, Calif.) and G418-resisitant colonies selected after approximately 2 weeks. Several independent colonies were picked up and expanded into mass culture and screened for the expression of exogenous CHCM1/CHCHD6. Several vector-only transfected colonies were also isolated, pooled and expanded into mass culture. CHCM1/CHCHD6 expressing clones B4, C3 and C4 were selected for further studies.
as §3

[5] = system: MCF7 cells; experiment: Transmission electron microscopy of mitochondrial cristae, MCF7; type: cell-based, human; settings: CHCM1/CHCHD6 knockdown
Source text: as §2
Scramble and CHCM1/CHCHD6 knockdown cells were harvested and fixed by Ito and Karnovsky's fixative (2.5% glutaraldehyde, 2% paraformaldehyde in 0.1 M cacodylate buffer, pH 7.4) at 4° C. overnight (29). The next day cells were rinsed with 0.1 M cacodylate buffer for 5 times, 5 min each. After fixing with 1% osmium tetroxide in 0.1 M cacodylate buffer for 1 hr on ice, the samples were rinsed with double-distilled H2O for 3 times, 8 min each and later fixed with 1% Tannic acid for 1 hr. […]

[6] = system: RKO cells; experiment: Mitochondrial ATP synthesis assay (luciferase-based); type: cell-based, human; settings: RKO knockdown vs scramble cells; p<0.05 (FIG. 11A)
Method: Mitochondrial ATP synthesis assay was performed as reported previously (30). Briefly, CHCM1/CHCHD6 knockdown or scramble knockdown RKO cells were harvested, washed with glucose-free, serum free DMEM. Each sample with approximately 1.5×10^6 cells were re-suspended and incubated in 160 μl of buffer A (150 mM KCl, 25 mM Tris-HCl, 2 mM EDTA, 0.1% BSA, 10 mM potassium phosphate, pH 7.4, 0.1 mM MgCl2) with digitonin (40 μg/ml final concentration) for 1 min at room temperature. After a wash with buffer A, cells were centrifuged at 800×g at room temperature and pellets were re-suspended in 160 μl buffer A containing P^1, P^5-di (adenosine) pentaphosphate (0.15 mM). Subsequently, 10 μl of buffer B (0.5 M Tris-acetate, pH 7.75, 0.8 mM luciferin, 20 μg/ml luciferase), ADP (to 0.1 mM), malate and pyruvate (both to 1 mM) were added to the cell suspension. Oligomycin (1 μg/ml) was also added to one replicate of each sample prepared as above. Cells were transferred to a luminometer glass tubes and gently mixed with a vortex for 2 sec. Tubes were then placed in a luminometer (LUMAT LB 9507, Berthold Technologies, Germany) and light emission was recorded in the kinetic mode. The integration time for each reading was 1 sec. Interval between readings was 15 sec and a total recording time was 4 min. Finally, total cellular protein content of each sample was determined.

[7] = system: CHCM1/CHCHD6 mRNA; experiment: Lentiviral shRNA knockdown of endogenous CHCM1/CHCHD6 (Northern and Western blot); type: cell-based; settings: RKO human colon and MCF-7 breast cancer cells; M.O.I. 1.0 (FIG. 5A)
Method: as §4, §1
as §2, with “sequence: […]” for “sequence:”

[8] = system: melanoma cells; experiment: MTT assay, cell growth in CHCM1 knockdown melanoma cells; type: cell-based, human; settings: knockdown vs scramble; melanoma cells (FIG. 24)
Source text: as §2, §3

[9] = system: RKO, MCF7 and MDA231 cell lines; experiment: MTT assay, cell growth in CHCM1/CHCHD6 knockdown cells; type: cell-based, human; settings: knockdown vs scramble, MCF7, MDA231 (FIG. 5B)
Source text: as §2, §3

[10] = system: RKO cells; experiment: Oxygen consumption rate measurement; type: cell-based, human; settings: RKO knockdown vs scramble cells; p<0.05 (FIG. 11B)
Method: Intact cell oxygen consumption rate was measured by an Oxygraph system with DW1 Oxygen Electrode (Hansatech Instruments Ltd., Norfolk, U. K.) as described previously (30). Briefly, RKO cells with CHCM1/CHCHD6 knockdown or scramble knockdown were harvested by trypsinization and centrifugation at 2500 rpm. Approximately 1.5×10^6 cells were re-suspended in 300 μl growth medium for each sample and injected into the polarographic chamber for the intact cell-coupled oxygen consumption rate.

[11] = system: RKO cells; experiment: Transmission electron microscopy of mitochondrial cristae, RKO; type: cell-based, human; settings: CHCM1/CHCHD6 knockdown
Source text: as §2
Scramble and CHCM1/CHCHD6 knockdown cells were harvested and fixed by Ito and Karnovsky's fixative (2.5% glutaraldehyde, 2% paraformaldehyde in 0.1 M cacodylate buffer, pH 7.4) at 4° C. overnight (29). The next day cells were rinsed with 0.1 M cacodylate buffer for 5 times, 5 min each. After fixing with 1% osmium tetroxide in 0.1 M cacodylate buffer for 1 hr on ice, the samples were rinsed with double-distilled H2O for 3 times, 8 min each and later fixed with 1% Tannic acid for 1 hr. After rinsing with double-distilled H2O for additional 3 times 8 min each, samples were dehydrated and embedded into Poly/Bed® 812 according to the protocol of Poly/Bed® 812 BDMA Mini-kit (Polyscience, Inc., Warrington, Pa.). Poly/Bed®-embedded cells were cut into 80-90 nm ultrathin serial sections by a diamond knife-DIATOME 45 degree (Diatome U S, Hatfield, Pa.). Sections were supported on nickel grids/200 mesh (Electron Microscopy Sciences, Hatfield, Pa.) and post-stained in 4% uranyl acetate and 4% lead citrate. Finally sections were observed under Tecnai™ Transmission Electron Microscope (BioTwin lens) with Advantage Plus CCD Camera System at an 80.0-kV acceleration voltage.

[12] = multiple human cancer cell lines, etoposide 30 μM, ADRIAMYCIN 1.0 μM, 24 hr (FIG. 4C)
[13] = various human breast cancer cell lines (FIG. 23)
[14] = RKO human colon cancer cells, ADRIAMYCIN 0.5 μM (FIG. 4B)
[15] = RKO cells, respiratory chain inhibitors, 24 hr or antimycin A 1 μg/ml, rotenone 0.1 μg/ml for various time points (FIGS. 12A-B)

COc1cccc2c1C(=O)c1c(O)c3c(c(O)c1C2=O)C[C@@](O)(C(=O)CO)C[C@@H]3O[C@H]1C[C@H](N)[C@H](O)[C@H](C)O1 [ADRIAMYCIN®, doxorubicin]
CHCM1/CHCHD6 protein levels [1, 12]: down-regulated
CHCM1 protein level [1, 13]: down-regulate
drug-mediated chemosensitivity in CHCM1/CHCHD6 knockdown cells (cell viability, MTT) [2]: further increased
time by which CHCM1/CHCHD6 mRNA expression was reduced [3, 14]: ≤ 12 h
time post-treatment until which mRNA down-regulation was maintained [3, 14]: 60 h

N.N.[Cl][Pt][Cl] [Cisplatin]
CHCM1 protein level ([1]; UACC-62 melanoma cells, 24 hrs (FIG. 22)): downregulates

COc1cc([C@@H]2c3cc4c(cc3[C@@H](O[C@@H]3O[C@@H]5CO[C@@H](C)O[C@H]5[C@H](O)[C@H]3O)[C@H]3COC(=O)[C@H]23)OCO4)cc(OC)c1O [etoposide]
CHCM1/CHCHD6 protein levels [1, 12]: down-regulated
CHCM1 protein level [1, 13]: down-regulate
drug-mediated chemosensitivity in CHCM1/CHCHD6 knockdown cells (cell viability, MTT) [2]: further increased
etoposide-mediated chemosensitivity in cells overexpressing CHCM1/CHCHD6 (cell viability, MTT) [4]: reduced
CHCM1/CHCHD6 mRNA expression ([3]; multiple human cancer cell lines, etoposide 30 μM for 24 hr, Northern blot (FIG. 4A)): strongly down-regulated

C=C(C)[C@H]1Cc2c(ccc3c2O[C@@H]2COc4cc(OC)c(OC)cc4[C@@H]2C3=O)O1 [rotenone]
CHCM1/CHCHD6 protein levels [1, 15]: did not appreciably affect

G4: lentiviral pLKO.1 CHCM1/CHCHD6-specific shRNA, SEQ ID NO: 3 (GAGCGTATTGAGAGGAAGAATCTCGAGATTCTTCCTCTCAATACGCTCT)
Abnormal Mitochondria devoid or nearly devoid of cristae structures, Experiment 1 [5]: 58.3%
cellular ATP production [6]: affects cellular ATP production
knockdown of endogenous CHCM1/CHCHD6 at mRNA and protein levels [7]: effectively knocked down
cell growth (MTT) [8]: growth inhibition
cell growth (MTT) [9]: reduces cell growth
oxygen consumption rate [10]: affects oxygen consumption rate
Abnormal Mitochondria devoid or nearly devoid of cristae structures, Experiment 1 [11]: 17.8%

G5: lentiviral pLKO.1 CHCM1/CHCHD6-specific shRNA, SEQ ID NO: 4 (CCTGAAGAAGGGACCAATCATCTCGAGATGATTGGTCCCTTCTTCAGGT)
knockdown of endogenous CHCM1/CHCHD6 at mRNA and protein levels [7]: effectively knocked down

G6: lentiviral pLKO.1 CHCM1/CHCHD6-specific shRNA, SEQ ID NO: 5 (GCATGCTGCTATCCAGGATAACTCGAGTTATCCTGGATAGCAGCATGCT)
knockdown of endogenous CHCM1/CHCHD6 at mRNA and protein levels [7]: effectively knocked down

G7: lentiviral pLKO.1 CHCM1/CHCHD6-specific shRNA, SEQ ID NO: 6 (CTTTGGCCTTCAAGATGGCAACTCGAGTTGCCATCTTGAAGGCCAAAGT)
knockdown of endogenous CHCM1/CHCHD6 at mRNA and protein levels [7]: effectively knocked down

G8: lentiviral pLKO.1 CHCM1/CHCHD6-specific shRNA, SEQ ID NO: 7 (GCTGAGATGTATAAACTGTCTCTCGAGAGACAGTTTATACATCTCAGCT)
Abnormal Mitochondria devoid or nearly devoid of cristae structures, Experiment 1 [5]: 65.2%
cellular ATP production [6]: affects cellular ATP production
knockdown of endogenous CHCM1/CHCHD6 at mRNA and protein levels [7]: effectively knocked down
cell growth (MTT) [8]: growth inhibition
cell growth (MTT) [9]: reduces cell growth
oxygen consumption rate [10]: affects oxygen consumption rate
Abnormal Mitochondria devoid or nearly devoid of cristae structures, Experiment 1 [11]: 55.6%
Abnormal Mitochondria devoid or nearly devoid of cristae structures, Experiment 2 [11]: 70.5% (74/105)

antimycin A
CHCM1/CHCHD6 protein levels [1, 15]: did not appreciably affect
